As a reminder, the IC50 is the concentration at which inhibition is half-maximal. Low readings indicate higher potency, high ones lower potency.

The target in test [1] is T1, IGF1R Ba/F3 (Homo sapiens, UniProt P08069). The test is described as follows: Ba/F3 Cell Viability Inhibition Assay (Tel-TK transformed Ba/F3 lines). Format: cell-based, murine. The arrangement: the printed alternative. The following applies: Tel-TK (IGF1R) transformed Ba/F3 cells, 48 hours incubation, cell viability (Britelite luminescence). The method in brief:
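Murine pro-B Ba/F3 cells made IL-3-independent by TEL(1-375)- or BCR-fused tyrosine kinases; parental line run with 1 ng/ml IL-3 (final). 3750 cells/well exposed to DMSO-diluted compound for 48 h at 37 °C; viability read by Britelite luminescence. IC50 from logistic fit, concentration reducing viability to 50% of DMSO control.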

Test [2] deals with T1, IGF1R Ba/F3. The description is as above. Format: cell-based, murine. Also on record: most likely, as the lines are called Tel-TK) or BCR (P11274). To be noted: Tel-TK (IGF1R) transformed Ba/F3 cells, 48 hours incubation, cell viability (Britelite luminescence). The text has this:
Ba/F3 is a murine IL-3-dependent pro-B lymphoma cell line. Parental Ba/F3 cells are used to generate a panel of sublines whose proliferation and survival is rendered IL-3-independent by stable transduction with individual tyrosine kinases activated by fusion with the amino-terminal portion of TEL (amino acid 1-375) or BCR. In order to generate Ba/F3 cell lines transformed by Tel-Tyrosine Kinase (TK) fusions, parental Ba/F3 cells are infected with a retrovirus harboring each TEL-fusion kinase and subjected to puromycin selection and IL-3 withdrawal to obtain IL-3-independent, transformed Ba/F3 cells.
Each transformed Ba/F3 cells are cultured in RPMI-1640 media (Gibco Cat #11875093, Carlsbad, Calif.) supplemented with 10% FBS (Hyclone Cat #SV30014.03, Logan, Utah), 4.5 g/L glucose (Sigma #G5400, St.Louis, Mo.), 1.5 g/L sodium bicarbonate (Biowhittaker #17-613E, Walkersville, Md.) and Pen/Strep (Gibco #10378-016, Carlsbad, Calif.). Cells are splitted twice weekly.
The potency of test compounds against various Tel-TK transformed Ba/F3 lines is determined as follows. Exponentially growing BaF3 Tel-TK cells are diluted in fresh medium to 75,000 cells/mL and seeded into 384-well plates (3750 cells/well) at 50 μL/well using a gill liquid dispenser (BioTek, Winooski, Vt., USA). […] 25 μL Britelite (Perkin Elmer) is added and luminescence is quantified using Analyst GT (Molecular Devices). […]

Structures are written as SMILES.

T1 sequence (P08069 999-1274 limits assumed): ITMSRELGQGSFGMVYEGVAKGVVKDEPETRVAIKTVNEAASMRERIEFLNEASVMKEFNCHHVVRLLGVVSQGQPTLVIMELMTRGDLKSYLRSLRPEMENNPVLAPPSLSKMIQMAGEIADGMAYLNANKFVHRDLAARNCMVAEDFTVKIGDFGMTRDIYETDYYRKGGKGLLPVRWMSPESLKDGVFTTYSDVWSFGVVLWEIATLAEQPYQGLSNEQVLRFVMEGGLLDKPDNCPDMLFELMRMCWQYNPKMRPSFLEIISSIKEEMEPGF

Take `Cc1cc(Nc2nc(Nc3cc(C)c(-c4ccc5c(c4)CCNC5)cc3C)ncc2Cl)n[nH]1` [Compound 74, 5-chloro-N2-(2,5-dimethyl-4-(1,2,3,4-tetrahydroisoquinolin-6-yl)phenyl)-N4-(5-methyl-1H-pyrazol-3-yl)pyrimidine-2,4-diamine]: the concentration for half-maximal inhibition (IC50) on IGF1R Ba/F3 [1] was 87 nM.

The compound `Cc1cc(Nc2nc(Nc3cc(C)c([C@H]4CC[C@H](N5CCOCC5)CC4)cc3F)ncc2C(F)(F)F)n[nH]1` [Compound 65, N2-(2-fluoro-5-methyl-4-((trans)-4-morpholinocyclohexyl)phenyl)-N4-(5-methyl-1H-pyrazol-3-yl)-5-(trifluoromethyl)pyrimidine-2,4-diamine] came in with an IC50 on IGF1R Ba/F3 [1] of 32 nM.

Take `Cc1cc(Nc2nc(Nc3cc(C)c([C@H]4CC[C@@H](N5CCOCC5)CC4)cc3F)ncc2C(F)(F)F)n[nH]1` [Compound 64, N2-(2-fluoro-5-methyl-4-((cis)-4-morpholinocyclohexyl)phenyl)-N4-(5-methyl-1H-pyrazol-3-yl)-5-(trifluoromethyl)pyrimidine-2,4-diamine]: half-maximal inhibition at IGF1R Ba/F3 [1] (IC50) required 50 nM. Still for that read-out and setting: in the case of `Cc1cc(Nc2nc(Nc3cc(C)c(-c4cnn(C)c4)cc3C)ncc2Cl)n[nH]1` [Compound 12, 5-chloro-N2-(2,5-dimethyl-4-(1-methyl-1H-pyrazol-4-yl)phenyl)-N4-(5-methyl-1H-pyrazol-3-yl)pyrimidine-2,4-diamine] it was 25 nM. Still for that read-out and setting: to `Cc1cc(Nc2nc(Nc3ccc(C4CCN(CC(N)=O)CC4)c(C)n3)ncc2Cl)n[nH]1` [Compound 76, 2-(4-(6-(5-chloro-4-(5-methyl-1H-pyrazol-3-ylamino)pyrimidin-2-ylamino)-2-methylpyridin-3-yl)piperidin-1-yl)acetamide] belongs 1790 nM. On the same count and under the same terms, in the case of `Cc1cc(Nc2nc(Nc3cc(C)c([C@H]4CC[C@H](N5CCCCC5)CC4)cc3C)ncc2C(F)(F)F)n[nH]1` [Compound 61, N2-(2,5-dimethyl-4-((trans)-4-(piperidin-1-yl)cyclohexyl)phenyl)-N4-(5-methyl-1H-pyrazol-3-yl)-5-(trifluoromethyl)pyrimidine-2,4-diamine] it was 3 nM. In turn, `Cc1cc(Nc2nc(Nc3cc(C)c([C@H]4CC[C@@H](N5CCN(C)CC5)CC4)cc3F)ncc2Cl)n[nH]1` [Compound 52, Cis-5-chloro-N2-(2-fluoro-5-methyl-4-(4-(4-methylpiperazin-1-yl)cyclohexyl)phenyl)-N4-(5-methyl-1H-pyrazol-3-yl)pyrimidine-2,4-diamine] registered an IC50 at IGF1R Ba/F3 [1] of 24 nM. Same read-out and setting: in the case of `Cc1cc(Nc2nc(Nc3ccc(C4CCN(CC(N)=O)CC4)c4ccccc34)ncc2Cl)n[nH]1` [Compound 86, 2-(4-(4-(5-chloro-4-(5-methyl-1H-pyrazol-3-ylamino)pyrimidin-2-ylamino)naphthalene-1-yl)piperidin-1-yl)acetamide] it was 107 nM; in that of `Cc1cc(Nc2nc(Nc3cc(C)c(-c4cnco4)cc3C)ncc2Cl)n[nH]1` [Compound 20, 5-chloro-N2-(2,5-dimethyl-4-(oxazol-5-yl)phenyl)-N4-(5-methyl-1H-pyrazol-3-yl)pyrimidine-2,4-diamine], 109 nM; in that of `Cc1cc(Nc2nc(Nc3cc(C)c(-c4ncc[nH]4)cc3F)ncc2Cl)n[nH]1` [Compound 19, 5-chloro-N2-(2-fluoro-4-(1H-imidazol-2-yl)-5-methylphenyl)-N4-(5-methyl-1H-pyrazol-3-yl)pyrimidine-2,4-diamine], 288 nM. Still for that read-out and setting: in the case of `Cc1cc(Nc2nc(Nc3cc(C)c(C4CCC(=O)CC4)cc3C)ncc2C(F)(F)F)n[nH]1` [Compound 40, 4-(2,5-dimethyl-4-(4-(5-methyl-1H-pyrazol-3-ylamino)-5-(trifluoromethyl)pyrimidin-2-ylamino)phenyl)cyclohexanone] it was 49 nM. Regarding `Cc1cc(Nc2nc(Nc3cc(C)c(-c4cccnc4)cc3C)ncc2Cl)n[nH]1` [Compound 13], on IGF1R Ba/F3 [2], the 50% inhibitory concentration (IC50) is 29 nM. That is a double-digit nanomolar value. `CNC(=O)c1ccc(-c2cc(F)c(Nc3ncc(Cl)c(Nc4cc(C)[nH]n4)n3)cc2C)cn1` [Compound 4, 5-(4-(5-chloro-4-(5-methyl-1H-pyrazol-3-ylamino)pyrimidin-2-ylamino)-5-fluoro-2-methylphenyl)-N-methylpicolinamide] came in with an IC50 at IGF1R Ba/F3 [1] of 89 nM.

For the origin of these results see US8445505B2 (IRM LLC, priority 2008, dated 2013).
